Experimental data taken from US12612410B2 (CHILDREN'S HOSPITAL MEDICAL CENTER, priority 2020, dated 2026).

Tests used:
[1] = target: T1, IRAK1 (Homo sapiens, UniProt P51617); test: RBC HotSpot Kinase Assay, IRAK1; format: biochemical; conditions: isolated kinase, 33P-ATP
T1 construct: purchased Reaction Biology (RBC), HotSpot kinase assay
Summary of the method: (§1)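 Steps: substrate in reaction buffer (20 mM Hepes pH 7.5, 10 mM MgCl2, 2 mM DTT, 1% DMSO); cofactors added; kinase added; compound dispensed acoustically, 20 min RT; 33P-ATP added; 2 h RT; P81 filter capture.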

[2] = target: T2, FLT3 (Homo sapiens, UniProt P36888); test: RBC HotSpot Kinase Assay, FLT3; format: biochemical; design: purchased Reaction Biology (RBC), HotSpot kinase assay; conditions: isolated kinase, 33P-ATP
T2 sequence (P36888 27-993): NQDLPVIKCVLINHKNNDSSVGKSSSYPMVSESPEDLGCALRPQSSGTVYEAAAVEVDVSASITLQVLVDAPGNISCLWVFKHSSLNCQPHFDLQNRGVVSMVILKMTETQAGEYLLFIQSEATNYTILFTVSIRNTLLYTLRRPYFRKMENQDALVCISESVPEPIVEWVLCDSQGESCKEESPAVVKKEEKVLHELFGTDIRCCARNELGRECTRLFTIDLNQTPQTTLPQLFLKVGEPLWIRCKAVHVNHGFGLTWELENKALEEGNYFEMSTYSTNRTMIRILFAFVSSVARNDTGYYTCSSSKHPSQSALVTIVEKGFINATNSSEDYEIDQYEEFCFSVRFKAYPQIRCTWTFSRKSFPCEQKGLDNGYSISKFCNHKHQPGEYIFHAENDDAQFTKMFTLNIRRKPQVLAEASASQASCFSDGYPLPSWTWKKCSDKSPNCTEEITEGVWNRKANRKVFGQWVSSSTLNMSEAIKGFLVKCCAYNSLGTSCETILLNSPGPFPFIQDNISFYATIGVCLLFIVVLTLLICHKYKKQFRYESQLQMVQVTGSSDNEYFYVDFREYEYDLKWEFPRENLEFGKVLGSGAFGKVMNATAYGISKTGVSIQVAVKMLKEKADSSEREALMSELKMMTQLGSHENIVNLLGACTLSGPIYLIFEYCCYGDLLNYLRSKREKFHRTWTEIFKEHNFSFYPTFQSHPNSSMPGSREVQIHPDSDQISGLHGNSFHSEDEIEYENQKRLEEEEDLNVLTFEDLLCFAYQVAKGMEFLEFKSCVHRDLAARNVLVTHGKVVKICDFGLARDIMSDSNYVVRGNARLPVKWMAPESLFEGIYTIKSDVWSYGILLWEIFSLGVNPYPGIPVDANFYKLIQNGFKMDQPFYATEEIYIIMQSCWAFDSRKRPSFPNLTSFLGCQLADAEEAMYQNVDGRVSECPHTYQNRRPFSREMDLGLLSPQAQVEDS
Summary of the method: as §1

[3] = system: MOLM14 F691L cells; test: MOLM14 F691L cell viability assay (Cell Titer Glo); format: cell-based
Summary of the method: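 MOLM14 cells carrying FLT3 D835Y or F691L were seeded at 1000 cells/well in RPMI-1640 with 20% FBS and dosed at 22 concentrations, 1:2 dilutions from 10 μM. Viability after 48 h by Cell Titer Glo luminescence; 2.3 μM bortezomib as cytotoxic control.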

T1 sequence (P51617 whole entry): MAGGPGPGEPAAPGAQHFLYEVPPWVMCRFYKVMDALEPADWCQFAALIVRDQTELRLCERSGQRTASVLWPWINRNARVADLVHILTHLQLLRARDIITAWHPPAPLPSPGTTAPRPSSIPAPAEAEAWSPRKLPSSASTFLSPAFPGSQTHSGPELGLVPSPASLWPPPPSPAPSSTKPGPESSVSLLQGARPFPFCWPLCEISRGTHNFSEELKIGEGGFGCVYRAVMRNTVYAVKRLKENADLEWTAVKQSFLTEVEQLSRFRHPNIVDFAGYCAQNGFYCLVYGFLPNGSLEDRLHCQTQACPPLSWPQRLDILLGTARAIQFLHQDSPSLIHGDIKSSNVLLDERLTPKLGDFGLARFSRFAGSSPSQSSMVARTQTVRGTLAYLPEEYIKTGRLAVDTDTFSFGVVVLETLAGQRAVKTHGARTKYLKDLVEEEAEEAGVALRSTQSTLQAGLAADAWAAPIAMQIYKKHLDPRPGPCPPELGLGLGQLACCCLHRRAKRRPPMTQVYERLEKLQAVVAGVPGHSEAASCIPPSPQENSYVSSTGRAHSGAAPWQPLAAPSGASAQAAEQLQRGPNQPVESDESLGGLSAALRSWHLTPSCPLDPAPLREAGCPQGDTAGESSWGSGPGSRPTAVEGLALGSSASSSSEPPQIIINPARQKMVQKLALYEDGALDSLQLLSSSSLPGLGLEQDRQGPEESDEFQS

SMILES	IC50 [1]	IC50 [2]	IC50 ([3]; Homo sapiens, MOLM-14, 48 h)	IC50 ([3]; 48 hours)
CC1(c2cn3c(-c4cccc(N[C@H]5CNC[C@@H]5F)n4)cnc3cn2)CC1 [Compound 1, N-((3S,4S)-4-fluoropyrrolidin-3-yl)-6-(6-(1-methylcyclopropyl)imidazo[1,2-a]pyrazin-3-yl)pyridin-2-amine]	63 nM	0.6 nM	169 nM	–
CC1(c2cn3c(-c4cccc(N[C@@H]5CCNC5)n4)cnc3cn2)CC1 [Compound 3, (R)-6-(6-(1-methylcyclopropyl)imidazo[1,2-a]pyrazin-3-yl)-N-(pyrrolidin-3-yl)pyridin-2-amine]	88 nM	0.7 nM	–	–
CC1(c2cn3c(-c4cccc(N[C@H]5CNCC56CC6)n4)cnc3cn2)CC1 [Compound 5, (R)-N-(6-(6-(1-methylcyclopropyl)imidazo[1,2-a]pyrazin-3-yl)pyridin-2-yl)-5-azaspiro[2.4]heptan-7-amine]	114 nM	< 0.5 nM	34 nM	–
FC(F)(F)C1(c2cn3c(-c4cccc(N[C@@H]5CCNC5)n4)cnc3cn2)CC1 [Compound 10, (R)-N-(pyrrolidin-3-yl)-6-(6-(1-(trifluoromethyl)cyclopropyl)imidazo[1,2-a]pyrazin-3-yl)pyridin-2-amine]	155 nM	< 0.5 nM	168 nM	–
FC(F)c1cn2c(-c3cccc(N[C@H]4CNC[C@@H]4F)n3)cnc2cn1 [Compound 16, 6-(6-(difluoromethyl)imidazo[1,2-a]pyrazin-3-yl)-N-((3S,4S)-4-fluoropyrrolidin-3-yl)pyridin-2-amine]	60 nM	< 0.5 nM	226 nM	–
FC(F)c1cn2c(-c3cccc(N[C@H]4CNCC[C@@H]4F)n3)cnc2cn1 [Compound 25, 6-(6-(difluoromethyl)imidazo[1,2-a]pyrazin-3-yl)-N-((3S,4S)-4-fluoropiperidin-3-yl)pyridin-2-amine]	144 nM	< 0.5 nM	74 nM	–
CC(C)(O)c1cn2c(-c3cccc(N[C@@H]4CCCNC4)n3)cnc2cn1 [Compound 30, (R)-2-(3-(6-(piperidin-3-ylamino)pyridin-2-yl)imidazo[1,2-a]pyrazin-6-yl)propan-2-ol]	58 nM	< 0.5 nM	381 nM	–
CC(C)(O)c1cn2c(-c3cccc(N[C@H]4CNCC[C@@H]4F)n3)cnc2cn1 [Compound 31, 2-(3-(6-(((3S,4S)-4-fluoropiperidin-3-yl)amino)pyridin-2-yl)imidazo[1,2-a]pyrazin-6-yl)propan-2-ol]	23 nM	< 0.5 nM	249 nM	–
CC(C)(O)c1cn2c(-c3nc(N[C@H]4CNC[C@@H]4F)c(F)cc3F)cnc2cn1 [Compound 33, 2-(3-(3,5-difluoro-6-(((3S,4S)-4-fluoropyrrolidin-3-yl)amino)pyridin-2-yl)imidazo[1,2-a]pyrazin-6-yl)propan-2-ol]	61 nM	0.6 nM	2660 nM	–
CC(C)(O)c1cn2c(-c3nc(N[C@@H]4CCCNC4)c(F)cc3F)cnc2cn1 [Compound 34, (R)-2-(3-(3,5-difluoro-6-(piperidin-3-ylamino)pyridin-2-yl)imidazo[1,2-a]pyrazin-6-yl)propan-2-ol]	47 nM	4 nM	1330 nM	–
CC(C)(O)c1cn2c(-c3nc(N[C@H]4CNCC[C@@H]4F)c(F)cc3F)cnc2cn1 [Compound 35, 2-(3-(3,5-difluoro-6-(((3S,4S)-4-fluoropiperidin-3-yl)amino)pyridin-2-yl)imidazo[1,2-a]pyrazin-6-yl)propan-2-ol]	45 nM	1 nM	841 nM	–
FC(F)(F)COc1cn2c(-c3cccc(N[C@@H]4CCNC4)n3)cnc2cn1 [Compound 38, (R)-N-(pyrrolidin-3-yl)-6-(6-(2,2,2-trifluoroethoxy)imidazo[1,2-a]pyrazin-3-yl)pyridin-2-amine]	92 nM	< 0.5 nM	–	–
Cn1cc(-c2cn3c(-c4cccc(N[C@@H]5CCCNC5)n4)cnc3cn2)cn1 [Compound 43, (R)-6-(6-(1-methyl-1H-pyrazol-4-yl)imidazo[1,2-a]pyrazin-3-yl)-N-(piperidin-3-yl)pyridin-2-amine]	895 nM	< 0.5 nM	79 nM	–
F[C@H]1CNC[C@@H]1Nc1cccc(-c2cnc3cnc(C4CC4)cn23)n1 [Compound 50, 6-(6-cyclopropylimidazo[1,2-a]pyrazin-3-yl)-N-((3S,4S)-4-fluoropyrrolidin-3-yl)pyridin-2-amine]	113 nM	0.6 nM	192 nM	–
F[C@H]1CCNC[C@@H]1Nc1cccc(-c2cnc3cnc(C4CC4)cn23)n1 [Compound 51, 6-(6-cyclopropylimidazo[1,2-a]pyrazin-3-yl)-N-((3S,4S)-4-fluoropiperidin-3-yl)pyridin-2-amine]	80 nM	< 0.5 nM	53 nM	–
Cn1cc(-c2cn3c(-c4cccc(N[C@H]5CNC[C@@H]5F)n4)cnc3cn2)cn1 [Compound 52, N-((3S,4S)-4-fluoropyrrolidin-3-yl)-6-(6-(1-methyl-1H-pyrazol-4-yl)imidazo[1,2-a]pyrazin-3-yl)pyridin-2-amine]	202 nM	< 0.5 nM	106 nM	–
FC(F)COc1cn2c(-c3cccc(N[C@H]4CNC[C@@H]4F)n3)cnc2cn1 [Compound 58, 6-(6-(2,2-difluoroethoxy)imidazo[1,2-a]pyrazin-3-yl)-N-((3S,4S)-4-fluoropyrrolidin-3-yl)pyridin-2-amine]	117 nM	0.7 nM	–	–

The remaining lines, values ahead:

IC50 [1]	IC50 [2]	IC50 ([3]; Homo sapiens, MOLM-14, 48 h)	IC50 ([3]; 48 hours)	SMILES
237 nM	0.9 nM	376 nM	–	CC(O)(c1cn2c(-c3cccc(N[C@H]4CNC[C@@H]4F)n3)cnc2cn1)C(F)(F)F (single isomer, unassigned) [Compound 77]
66 nM	< 0.5 nM	–	299 nM	CC(O)(c1cn2c(-c3cccc(N[C@H]4CNC[C@@H]4F)n3)cnc2cn1)C(F)(F)F (single isomer, unassigned) [Compound 78]
64 nM	0.6 nM	196 nM	–	CC(O)(c1cn2c(-c3cccc(N[C@H]4CNCC[C@@H]4F)n3)cnc2cn1)C(F)(F)F (single isomer, unassigned) [Compound 80]
31 nM	< 0.5 nM	211 nM	–	CC(O)(c1cn2c(-c3cccc(N[C@@H]4CCCNC4)n3)cnc2cn1)C(F)(F)F (single isomer, unassigned) [Compound 81]
16 nM	< 0.5 nM	–	157 nM	CC(O)(c1cn2c(-c3cccc(N[C@H]4CNCC[C@@H]4F)n3)cnc2cn1)C(F)(F)F (single isomer, unassigned) [Compound 82]
53 nM	0.6 nM	26 nM	–	O=S1(=O)CCCN1c1cn2c(-c3cccc(N[C@H]4CNCC[C@@H]4F)n3)cnc2cn1 [Compound 97, 2-(3-(6-(((3S,4S)-4-fluoropiperidin-3-yl)amino)pyridin-2-yl)imidazo[1,2-a]pyrazin-6-yl)isothiazolidine 1,1-dioxide]
130 nM	1 nM	97 nM	–	O=C1CCCN1c1cn2c(-c3nc(N[C@H]4CNCC[C@@H]4F)c(F)cc3F)cnc2cn1 [Compound 107, 1-[3-[3,5-difluoro-6-[[(3S,4S)-4-fluoro-3-piperidyl]amino]-2-pyridyl]imidazo[1,2-a]pyrazin-6-yl]pyrrolidin-2-one]
